Experimental findings from patent publication US20210330611A1, “THERAPY FOR NEUROLOGICAL DISEASES/DISORDERS” (priority 2020, published 2021) are described below.

Data set [1] has as its system LPS-induced microglia activation. The data set is described as follows: Image-based assay of LPS-induced microglia activation (HTS and dose response). Particulars: primary microglia HTS, LPS stimulation, activation = cell size >800 μm2; for inhibition at 10 µM: Rattus norvegicus, Microglia, 48 h, read-out: LPS % inhibition. It counts as cell-based, rat.
Data set [2] deals with primary rat microglia. Nature of the data set: Cell toxicity (dead cells, size <150 μm2) in coated fibrin (cFib) assay.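 Further: share of dead cells sized under 150 µm2 at 10 µM in fibrin-stimulated microglia HTS.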 The settings on record: primary microglia HTS, fibrin stimulation, toxicity = cell size <150 μm2.
In data set [3] the test system is fibrin- and LPS-induced microglia activation. Nature of the data set: cells. It counts as cell-based, rat. Particulars: quadrant by fibrin and LPS inhibition in HTS of 1907 compounds.
Data set [4] deals with primary rat microglia. The data set is described as follows: Cell toxicity (dead cells, size <150 μm2) in LPS assay. The settings on record: primary microglia HTS, LPS stimulation, toxicity = cell size <150 μm2.
Data set [5] relates to fibrin-induced microglia activation. The data set is described as follows: Image-based assay of fibrin-induced microglia activation (HTS and dose response). It counts as cell-based, rat. Particulars: primary microglia HTS, fibrin stimulation, activation = cell size >800 μm2; for inhibition at 10 µM: Rattus norvegicus, Microglia, read-out: Fibrin % inhibition.

The term inhibition denotes the drop in the measured response relative to a control, in per cent.

Structures can show the parent of a compound that is named as a salt.

On to `O=C(c1ccccc1)c1ccc2n1CCC2C(=O)O` (stereo not drawn) [Ketorolac], for which the inhibition at 10 µM in data set [1] turned out to be 26%; in data set [5], 15%. Moreover, the “Fibrin % cell toxicity” value in the data set on primary rat microglia [2] came to 0%. The “Quadrant (FIG. 5b)” value in data set [3] was “Q4”. The “LPS % cell toxicity” value in the data set on primary rat microglia [4] was 0%.
`CN1CCC(=C2c3ccccc3CC(=O)c3sccc32)CC1` [Ketotifen]: the values for the inhibition at 10 µM in data set [1] and in data set [5] were 15% and 1%, respectively. In the data set on primary rat microglia [2], the “Fibrin % cell toxicity” value was found to be 1%. The “Quadrant (FIG. 5b)” value in data set [3] is “Q4”. In addition, the “LPS % cell toxicity” value in the data set with primary rat microglia [4] amounted to 0%.
In the case of `COc1c2occc2c(OC)c2c(=O)cc(C)oc12` [Khellin], the inhibition at 10 µM was 5% in data set [1] and -16% in data set [5]. Besides, the “Fibrin % cell toxicity” value in the data set on primary rat microglia [2] is listed as 0%. In data set [3], the “Quadrant (FIG. 5b)” value was “Q4”. In the data set with primary rat microglia [4], the “LPS % cell toxicity” value was determined as 0%.
For the molecule `CC[C@H](C)[C@H](N)C(=O)O` [L-Isoleucine], the inhibition at 10 µM in data set [1] was 17%; in data set [5] it was -35%. Further, in the data set with primary rat microglia [2], the “Fibrin % cell toxicity” value stood at 0%. In data set [3], the “Quadrant (FIG. 5b)” value is “Q4”. In addition, the “LPS % cell toxicity” value with primary rat microglia [4] stood at 0%.
As to `C[C@](N)(Cc1ccc(O)c(O)c1)C(=O)O` [L-alpha-methyl Dopa, Methyldopa], the LPS % inhibition in data set [1] is listed as 15%. In addition, in the data set on primary rat microglia [2], the “Fibrin % cell toxicity” value was 0%. For the same molecule, in data set [3], the “Quadrant (FIG. 5b)” value is reported as “Q4”. Besides, in the data set on primary rat microglia [4], the “LPS % cell toxicity” value was 0%. In addition, in data set [5], the Fibrin % inhibition is on record as 4%.
`OC[C@@H](O)[C@@H](O[C@@H]1O[C@H](CO)[C@H](O)[C@H](O)[C@H]1O)[C@H](O)[C@@H](O)CO` [Lacitol]: the LPS % inhibition in data set [1] came out at 18%. In the data set with primary rat microglia [2], the “Fibrin % cell toxicity” value came out at 1%. Also, in data set [3], the “Quadrant (FIG. 5b)” value is given as “Q4”. In addition, the “LPS % cell toxicity” value in the data set on primary rat microglia [4] is 1%. The Fibrin % inhibition in data set [5] is given as −24%.
In the case of `Nc1nnc(-c2cccc(Cl)c2Cl)c(N)n1` [Lamotrigine], the inhibition at 10 µM is 12% in data set [1] and -12% in data set [5]. Further, in the data set on primary rat microglia [2], the “Fibrin % cell toxicity” value came to 1%. Besides, the “Quadrant (FIG. 5b)” value in data set [3] is reported as “Q4”. Further, the “LPS % cell toxicity” value in the data set with primary rat microglia [4] was 0%.
As to `CC(=O)O[C@H]1C[C@H](O[C@H]2[C@@H](O)C[C@H](O[C@H]3[C@@H](O)C[C@H](O[C@H]4CC[C@@]5(C)[C@H](CC[C@@H]6[C@@H]5C[C@@H](O)[C@]5(C)[C@@H](C7=CC(=O)OC7)CC[C@]65O)C4)O[C@@H]3C)O[C@@H]2C)O[C@H](C)[C@H]1O[C@@H]1O[C@H](CO)[C@@H](O)[C@H](O)[C@H]1O` [Lanatoside C], the LPS % inhibition in data set [1] was determined as 35%. For the same molecule, the “Fibrin % cell toxicity” value in the data set with primary rat microglia [2] was determined as 1%. Further, the “Quadrant (FIG. 5b)” value in data set [3] is reported as “Q4”. Further, in the data set on primary rat microglia [4], the “LPS % cell toxicity” value turned out to be 1%. Moreover, in data set [5], the Fibrin % inhibition came to 17%.
Regarding `Cc1c(OCC(F)(F)F)ccnc1C[S+]([O-])c1nc2ccccc2[nH]1` (stereo not drawn) [Lansoprazole], the inhibition at 10 µM in data set [1] turned out to be 15%; in data set [5] it was 3%. The “Fibrin % cell toxicity” value with primary rat microglia [2] is given as 0%. In data set [3], the “Quadrant (FIG. 5b)” value is recorded as “Q4”. Further, in the data set on primary rat microglia [4], the “LPS % cell toxicity” value is listed as 0%.
As to `CO[C@@]1(NC(=O)C(C(=O)O)c2ccc(O)cc2)C(=O)N2C(C(=O)O)=C(CSc3nnnn3C)CO[C@@H]21` (stereo partly drawn) [Latamoxef], the values for the inhibition at 10 µM in data set [1] and in data set [5] were 22% and -18%, respectively. Further, in the data set on primary rat microglia [2], the “Fibrin % cell toxicity” value is 1%. Further, the “Quadrant (FIG. 5b)” value in data set [3] is reported as “Q4”. Besides, the “LPS % cell toxicity” value in the data set on primary rat microglia [4] was 0%.
As to `CC(C)OC(=O)CCC/C=C\C[C@@H]1[C@@H](CC[C@@H](O)CCc2ccccc2)[C@H](O)C[C@@H]1O` [Latanoprost], the inhibition at 10 µM is 4% in data set [1] and 10% in data set [5]. In the data set with primary rat microglia [2], the “Fibrin % cell toxicity” value came out at 1%. For the same molecule, the “Quadrant (FIG. 5b)” value in data set [3] is given as “Q4”. The “LPS % cell toxicity” value in the data set on primary rat microglia [4] is 0%.
For `Cc1oncc1C(=O)Nc1ccc(C(F)(F)F)cc1` [Lefunamide, Leflunomide], the LPS % inhibition in data set [1] is 10%. The “Fibrin % cell toxicity” value in the data set with primary rat microglia [2] is 0%. Also, the “Quadrant (FIG. 5b)” value in data set [3] was “Q4”. In the data set with primary rat microglia [4], the “LPS % cell toxicity” value is listed as 0%. In addition, in data set [5], the Fibrin % inhibition was −22%.
`Nc1nc2c(c(=O)[nH]1)N(C=O)C(CNc1ccc(C(=O)N[C@@H](CCC(=O)O)C(=O)O)cc1)CN2` (stereo partly drawn) [Leucovorin]: the inhibition at 10 µM in data set [1] was 8%; in data set [5] it was -29%. Further, the “Fibrin % cell toxicity” value in the data set on primary rat microglia [2] is 1%. Also, in data set [3], the “Quadrant (FIG. 5b)” value is recorded as “Q4”. Further, the “LPS % cell toxicity” value in the data set on primary rat microglia [4] is reported as 0%.
Turning to `CCNC(=O)[C@@H]1CCCN1C(=O)[C@H](CCCNC(=N)N)NC(=O)[C@H](CC(C)C)NC(=O)[C@@H](CC(C)C)NC(=O)[C@H](Cc1ccc(O)cc1)NC(=O)[C@H](CO)NC(=O)[C@H](Cc1c[nH]c2ccccc12)NC(=O)[C@H](Cc1c[nH]cn1)NC(=O)[C@@H]1CCC(=O)N1` [Leuprolide], the LPS % inhibition in data set [1] was −3%. In addition, in the data set on primary rat microglia [2], the “Fibrin % cell toxicity” value came out at 1%. The “Quadrant (FIG. 5b)” value in data set [3] was “Q4”. The “LPS % cell toxicity” value with primary rat microglia [4] is −1%. Also, the Fibrin % inhibition in data set [5] is reported as 5%.
Consider `N[C@H]1CONC1=O` [Levcycloserine], for which the inhibition at 10 µM in data set [1] was 12%; in data set [5], 2%. Also, the “Fibrin % cell toxicity” value with primary rat microglia [2] stood at 1%. Besides, the “Quadrant (FIG. 5b)” value in data set [3] is on record as “Q4”. Further, in the data set on primary rat microglia [4], the “LPS % cell toxicity” value worked out at 0%.
Consider `CC[C@@H](C(N)=O)N1CCCC1=O` [Levetiracetam], for which the inhibition at 10 µM is 7% in data set [1] and -24% in data set [5]. In addition, in the data set with primary rat microglia [2], the “Fibrin % cell toxicity” value was 1%. Further, the “Quadrant (FIG. 5b)” value in data set [3] is given as “Q4”. For the same molecule, in the data set on primary rat microglia [4], the “LPS % cell toxicity” value worked out at 0%.
As for `CC(C)(C)NC[C@H](O)COc1cccc2c1CCCC2=O` [Levobunolol Hydrochloride], the LPS % inhibition in data set [1] is 12%. Further, the “Fibrin % cell toxicity” value with primary rat microglia [2] came to 0%. Moreover, in data set [3], the “Quadrant (FIG. 5b)” value is listed as “Q4”. Further, the “LPS % cell toxicity” value in the data set on primary rat microglia [4] turned out to be 0%. Also, in data set [5], the Fibrin % inhibition is given as −19%.
In the case of `CC(C)(C)NC[C@H](O)COc1cccc2c1CCCC2=O` [Levobunolol], in data set [1], the LPS % inhibition is 30%. Besides, the “Fibrin % cell toxicity” value in the data set with primary rat microglia [2] amounted to 1%. For the same molecule, the “Quadrant (FIG. 5b)” value in data set [3] is reported as “Q4”. The “LPS % cell toxicity” value in the data set with primary rat microglia [4] was 0%. Further, the Fibrin % inhibition in data set [5] is −28%.
As to `CCCCN1CCCC[C@H]1C(=O)Nc1c(C)cccc1C` [Levobupivacaine], the results for the inhibition at 10 µM in data set [1] and in data set [5] were -10% and 34%, respectively. Further, the “Fibrin % cell toxicity” value in the data set on primary rat microglia [2] is reported as 1%. For the same molecule, the “Quadrant (FIG. 5b)” value in data set [3] is “Q4”. For the same molecule, the “LPS % cell toxicity” value with primary rat microglia [4] amounted to 0%.
The corresponding values for `C[C@@H]1CN([C@H]2CC[C@](C#N)(c3ccc(F)cc3)CC2)CC[C@]1(C(=O)O)c1ccccc1` [Levocabastine] are 4%, 7%, 1%, “Q4” and 0%.
On to `CCC(=O)O[C@H](CC(=O)O)C[N+](C)(C)C` [Levocarnitine Propionate Hydrochloride], for which the inhibition at 10 µM in data set [1] is 12%; in data set [5] it was -16%. Moreover, the “Fibrin % cell toxicity” value in the data set with primary rat microglia [2] is 1%. In data set [3], the “Quadrant (FIG. 5b)” value was “Q4”. The “LPS % cell toxicity” value with primary rat microglia [4] stood at 1%.
